# According to PMC10046369, “Low-Affinity/High-Selectivity Dopamine Transport Inhibition Sufficient to Rescue Cognitive Functions in the Aging Rat” (Biomolecules, 2023):
# Key:
# CCR2 = CCR2 (Homo sapiens, UniProt P41597); assay: cell-based; design: Eurofins Cerep functional GPCR screen, antagonist mode, inhibition of control agonist response; conditions: read-out: % Inhibition of Control Agonist Response, Mean
# CCR1 = CCR1 (Homo sapiens, UniProt P32246); assay: cell-based; design: Eurofins Cerep functional GPCR screen, antagonist mode, inhibition of control agonist response; conditions: read-out: % Inhibition of Control Agonist Response, Mean
# BLT1 (LTB4) = target: T1, BLT1 (LTB4) (Homo sapiens, UniProt Q15722); assay: cell-based; design: Eurofins Cerep functional GPCR screen, antagonist mode, inhibition of control agonist response; conditions: read-out: % Inhibition of Control Agonist Response, Mean
# T1 construct: gene LTB4R
# FFA2 = target: T2, FFA2 (Homo sapiens, UniProt O15552); assay: cell-based; design: Eurofins Cerep functional GPCR screen, antagonist mode, inhibition of control agonist response; conditions: read-out: % Inhibition of Control Agonist Response, Mean
# T2 construct: gene FFAR2
# CCR8 = CCR8 (Homo sapiens, UniProt P51685); assay: cell-based; design: Eurofins Cerep functional GPCR screen, antagonist mode, inhibition of control agonist response; conditions: read-out: % Inhibition of Control Agonist Response, Mean
# A1 = target: T3, A1 (Homo sapiens, UniProt P30542); assay: cell-based; design: Eurofins Cerep functional GPCR screen, antagonist mode, inhibition of control agonist response; conditions: read-out: % Inhibition of Control Agonist Response, Mean
# T3 construct: gene ADORA1
# CXCR3 = CXCR3 (Homo sapiens, UniProt P49682); assay: cell-based; design: Eurofins Cerep functional GPCR screen, antagonist mode, inhibition of control agonist response; conditions: read-out: % Inhibition of Control Agonist Response, Mean
# alpha 1D = target: T4, alpha 1D (Homo sapiens, UniProt P25100); assay: cell-based; design: Eurofins Cerep functional GPCR screen, antagonist mode, inhibition of control agonist response; conditions: read-out: % Inhibition of Control Agonist Response, Mean
# T4 construct: gene ADRA1D
# KiSS1 / GPR54 = target: T5, KiSS1 / GPR54 (Homo sapiens, UniProt Q969F8); assay: cell-based; design: Eurofins Cerep functional GPCR screen, antagonist mode, inhibition of control agonist response; conditions: read-out: % Inhibition of Control Agonist Response, Mean
# T5 construct: gene KISS1R
# CaS = target: T6, CaS (Homo sapiens, UniProt P41180); assay: cell-based; design: Eurofins Cerep functional GPCR screen, antagonist mode, inhibition of control agonist response; conditions: read-out: % Inhibition of Control Agonist Response, Mean
# T6 construct: gene CASR
# ChemR23 = target: T7, ChemR23 (Homo sapiens, UniProt Q99788); assay: cell-based; design: Eurofins Cerep functional GPCR screen, antagonist mode, inhibition of control agonist response; conditions: read-out: % Inhibition of Control Agonist Response, Mean
# T7 construct: gene CMKLR1
# BB1 = target: T8, BB1 (Homo sapiens, UniProt P28336); assay: cell-based; design: Eurofins Cerep functional GPCR screen, antagonist mode, inhibition of control agonist response; conditions: read-out: % Inhibition of Control Agonist Response, Mean
# T8 construct: gene NMBR
# CCK2 (CCKB) = target: T9, CCK2 (CCKB) (Homo sapiens, UniProt P32239); assay: cell-based; design: Eurofins Cerep functional GPCR screen, antagonist mode, inhibition of control agonist response; conditions: read-out: % Inhibition of Control Agonist Response, Mean
# T9 construct: gene CCKBR
# B2 = target: T10, B2 (Homo sapiens, UniProt P30411); assay: cell-based; design: Eurofins Cerep functional GPCR screen, antagonist mode, inhibition of control agonist response; conditions: read-out: % Inhibition of Control Agonist Response, Mean
# T10 construct: gene BDKRB2
# CB2 = target: T11, CB2 (Homo sapiens, UniProt P34972); assay: cell-based; design: Eurofins Cerep functional GPCR screen, antagonist mode, inhibition of control agonist response; conditions: read-out: % Inhibition of Control Agonist Response, Mean
# T11 construct: gene CNR2
# ETA = target: T12, ETA (Homo sapiens, UniProt P25101); assay: cell-based; design: Eurofins Cerep functional GPCR screen, antagonist mode, inhibition of control agonist response; conditions: read-out: % Inhibition of Control Agonist Response, Mean
# T12 construct: gene EDNRA
# GPR103/QRFP = target: T13, GPR103/QRFP (Homo sapiens, UniProt Q96P65); assay: cell-based; design: Eurofins Cerep functional GPCR screen, antagonist mode, inhibition of control agonist response; conditions: read-out: % Inhibition of Control Agonist Response, Mean
# T13 construct: gene QRFPR
# β3 = target: T14, β3 (Homo sapiens, UniProt P13945); assay: cell-based; design: Eurofins Cerep functional GPCR screen, antagonist mode, inhibition of control agonist response; conditions: read-out: % Inhibition of Control Agonist Response, Mean
# T14 construct: gene ADRB3
# TGR5 = target: T15, TGR5 (Homo sapiens, UniProt Q8TDU6); assay: cell-based; design: Eurofins Cerep functional GPCR screen, antagonist mode, inhibition of control agonist response; conditions: read-out: % Inhibition of Control Agonist Response, Mean
# T15 construct: gene GPBAR1
# FFA3 = target: T16, FFA3 (Homo sapiens, UniProt O14843); assay: cell-based; design: Eurofins Cerep functional GPCR screen, antagonist mode, inhibition of control agonist response; conditions: read-out: % Inhibition of Control Agonist Response, Mean
# T16 construct: gene FFAR3
# α2B = target: T17, α2B (Homo sapiens, UniProt P18089); assay: cell-based; design: Eurofins Cerep functional GPCR screen, antagonist mode, inhibition of control agonist response; conditions: read-out: % Inhibition of Control Agonist Response, Mean
# T17 construct: gene ADRA2B
# CCR7 = CCR7 (Homo sapiens, UniProt P32248); assay: cell-based; design: Eurofins Cerep functional GPCR screen, antagonist mode, inhibition of control agonist response; conditions: read-out: % Inhibition of Control Agonist Response, Mean
# XCR1 / GPR5 = XCR1 / GPR5 (Homo sapiens, UniProt P46094); assay: cell-based; design: Eurofins Cerep functional GPCR screen, antagonist mode, inhibition of control agonist response; conditions: read-out: % Inhibition of Control Agonist Response, Mean
# PFCDPK1(P.falciparum) = target: T18, PFCDPK1(P.falciparum) (Plasmodium falciparum, UniProt P62344); assay: biochemical; design: KINOMEscan competition binding panel, per cent of control; conditions: read-out: %Ctrl @ 2800nM
# T18 construct: gene CDPK1
# PAF (h) = target: T19, PAF (h) (Homo sapiens, UniProt P25105); assay: cell-based; design: functional GPCR antagonist screen (Eurofins Cerep), percent inhibition of control agonist response; conditions: antagonist effect, against control agonist; read-out: % Inhibition of Control Agonist Response, Mean
# T19 construct: gene PTAFR
# T16 sequence (O14843 whole entry): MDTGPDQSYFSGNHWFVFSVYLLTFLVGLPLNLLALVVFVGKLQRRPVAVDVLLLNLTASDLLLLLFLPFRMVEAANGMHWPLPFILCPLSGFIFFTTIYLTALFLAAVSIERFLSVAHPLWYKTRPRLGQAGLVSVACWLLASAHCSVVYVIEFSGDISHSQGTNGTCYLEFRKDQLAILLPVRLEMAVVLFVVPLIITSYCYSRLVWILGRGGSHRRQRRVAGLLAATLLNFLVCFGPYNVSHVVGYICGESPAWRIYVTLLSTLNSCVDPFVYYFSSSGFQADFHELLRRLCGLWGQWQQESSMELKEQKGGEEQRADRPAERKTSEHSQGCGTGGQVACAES
# T8 sequence (P28336 whole entry): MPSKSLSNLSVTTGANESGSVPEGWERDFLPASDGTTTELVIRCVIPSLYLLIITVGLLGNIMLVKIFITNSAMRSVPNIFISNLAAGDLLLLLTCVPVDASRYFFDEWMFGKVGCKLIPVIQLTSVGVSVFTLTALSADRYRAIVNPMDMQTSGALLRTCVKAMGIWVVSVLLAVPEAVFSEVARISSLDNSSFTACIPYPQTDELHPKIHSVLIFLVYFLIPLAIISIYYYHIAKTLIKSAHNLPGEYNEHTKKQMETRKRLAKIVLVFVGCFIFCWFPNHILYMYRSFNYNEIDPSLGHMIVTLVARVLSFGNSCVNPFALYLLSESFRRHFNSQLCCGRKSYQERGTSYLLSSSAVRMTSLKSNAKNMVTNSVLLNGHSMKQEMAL
# T14 sequence (P13945 whole entry): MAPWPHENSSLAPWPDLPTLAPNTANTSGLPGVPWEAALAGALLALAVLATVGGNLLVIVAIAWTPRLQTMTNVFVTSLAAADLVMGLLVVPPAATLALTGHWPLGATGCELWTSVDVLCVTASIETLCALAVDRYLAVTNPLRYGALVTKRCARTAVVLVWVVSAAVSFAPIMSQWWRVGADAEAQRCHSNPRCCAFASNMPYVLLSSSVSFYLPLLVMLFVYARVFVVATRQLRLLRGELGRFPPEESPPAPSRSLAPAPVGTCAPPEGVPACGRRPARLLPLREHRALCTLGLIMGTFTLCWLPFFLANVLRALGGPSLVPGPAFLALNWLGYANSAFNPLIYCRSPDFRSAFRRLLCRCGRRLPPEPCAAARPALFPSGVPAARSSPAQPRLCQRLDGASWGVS
# T1 sequence (Q15722 whole entry): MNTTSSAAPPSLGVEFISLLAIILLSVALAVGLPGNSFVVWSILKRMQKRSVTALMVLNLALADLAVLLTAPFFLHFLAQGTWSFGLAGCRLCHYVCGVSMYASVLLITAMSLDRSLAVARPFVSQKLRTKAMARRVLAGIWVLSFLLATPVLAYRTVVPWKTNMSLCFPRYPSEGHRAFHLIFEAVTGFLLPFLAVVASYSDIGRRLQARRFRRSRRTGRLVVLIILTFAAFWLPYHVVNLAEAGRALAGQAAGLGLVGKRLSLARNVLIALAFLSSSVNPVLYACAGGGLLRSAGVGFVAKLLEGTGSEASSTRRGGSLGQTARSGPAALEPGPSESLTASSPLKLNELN
# T11 sequence (P34972 whole entry): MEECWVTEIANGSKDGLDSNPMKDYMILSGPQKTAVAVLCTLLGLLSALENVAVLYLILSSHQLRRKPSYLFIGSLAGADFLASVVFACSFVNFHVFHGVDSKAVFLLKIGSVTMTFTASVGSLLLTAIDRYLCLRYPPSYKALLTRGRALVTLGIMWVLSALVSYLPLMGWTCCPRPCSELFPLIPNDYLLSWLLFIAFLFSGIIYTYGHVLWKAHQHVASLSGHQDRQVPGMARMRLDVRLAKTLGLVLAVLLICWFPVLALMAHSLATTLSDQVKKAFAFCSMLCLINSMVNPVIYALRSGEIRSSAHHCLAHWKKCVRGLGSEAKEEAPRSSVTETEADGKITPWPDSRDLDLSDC
# T9 sequence (P32239 whole entry): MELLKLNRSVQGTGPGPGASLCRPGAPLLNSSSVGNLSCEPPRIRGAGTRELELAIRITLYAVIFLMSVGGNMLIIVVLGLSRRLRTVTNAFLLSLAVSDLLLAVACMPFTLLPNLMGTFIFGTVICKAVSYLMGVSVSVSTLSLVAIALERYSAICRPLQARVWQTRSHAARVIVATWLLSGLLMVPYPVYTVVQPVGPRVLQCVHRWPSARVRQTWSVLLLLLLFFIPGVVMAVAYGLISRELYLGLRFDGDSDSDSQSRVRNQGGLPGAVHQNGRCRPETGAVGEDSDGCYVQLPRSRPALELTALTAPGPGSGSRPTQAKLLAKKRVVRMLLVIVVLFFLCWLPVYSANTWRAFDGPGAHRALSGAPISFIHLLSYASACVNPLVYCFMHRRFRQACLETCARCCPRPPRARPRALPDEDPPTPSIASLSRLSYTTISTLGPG
# XCR1 / GPR5, sequence (P46094 whole entry): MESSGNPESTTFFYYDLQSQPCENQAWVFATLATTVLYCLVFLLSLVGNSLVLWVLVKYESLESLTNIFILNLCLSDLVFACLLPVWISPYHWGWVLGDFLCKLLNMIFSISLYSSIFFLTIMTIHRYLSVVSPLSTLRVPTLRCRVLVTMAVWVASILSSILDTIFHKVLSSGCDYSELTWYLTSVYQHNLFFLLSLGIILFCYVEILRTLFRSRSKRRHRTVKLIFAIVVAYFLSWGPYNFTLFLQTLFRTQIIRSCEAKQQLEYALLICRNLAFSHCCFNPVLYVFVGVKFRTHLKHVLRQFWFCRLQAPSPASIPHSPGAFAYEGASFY
# T6 sequence (P41180 whole entry): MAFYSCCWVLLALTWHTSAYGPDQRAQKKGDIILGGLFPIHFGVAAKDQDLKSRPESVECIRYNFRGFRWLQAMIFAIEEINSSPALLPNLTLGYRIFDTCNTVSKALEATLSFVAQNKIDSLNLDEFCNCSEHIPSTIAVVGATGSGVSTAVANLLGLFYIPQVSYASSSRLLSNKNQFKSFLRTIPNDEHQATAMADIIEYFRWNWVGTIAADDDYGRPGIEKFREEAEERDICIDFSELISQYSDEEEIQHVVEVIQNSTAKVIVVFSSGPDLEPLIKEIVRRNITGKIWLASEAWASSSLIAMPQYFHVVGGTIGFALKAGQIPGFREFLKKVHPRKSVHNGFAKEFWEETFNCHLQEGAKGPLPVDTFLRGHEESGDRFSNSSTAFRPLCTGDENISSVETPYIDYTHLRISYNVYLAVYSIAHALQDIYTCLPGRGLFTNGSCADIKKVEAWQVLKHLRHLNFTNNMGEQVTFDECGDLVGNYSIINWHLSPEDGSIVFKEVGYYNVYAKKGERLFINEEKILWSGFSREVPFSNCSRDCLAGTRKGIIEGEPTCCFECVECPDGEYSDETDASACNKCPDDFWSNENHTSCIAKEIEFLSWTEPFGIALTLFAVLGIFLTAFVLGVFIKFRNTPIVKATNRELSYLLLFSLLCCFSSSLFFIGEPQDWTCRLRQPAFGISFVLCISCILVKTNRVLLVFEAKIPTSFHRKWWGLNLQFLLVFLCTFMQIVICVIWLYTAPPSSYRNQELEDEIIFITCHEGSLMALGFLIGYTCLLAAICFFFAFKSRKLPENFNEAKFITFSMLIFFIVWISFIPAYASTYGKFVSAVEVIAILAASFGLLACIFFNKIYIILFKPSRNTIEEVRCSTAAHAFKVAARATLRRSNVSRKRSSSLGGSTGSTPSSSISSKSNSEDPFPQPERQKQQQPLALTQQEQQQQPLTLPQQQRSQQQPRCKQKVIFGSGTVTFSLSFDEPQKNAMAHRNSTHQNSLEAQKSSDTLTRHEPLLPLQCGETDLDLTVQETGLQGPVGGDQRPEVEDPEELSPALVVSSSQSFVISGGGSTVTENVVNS
# T12 sequence (P25101 whole entry): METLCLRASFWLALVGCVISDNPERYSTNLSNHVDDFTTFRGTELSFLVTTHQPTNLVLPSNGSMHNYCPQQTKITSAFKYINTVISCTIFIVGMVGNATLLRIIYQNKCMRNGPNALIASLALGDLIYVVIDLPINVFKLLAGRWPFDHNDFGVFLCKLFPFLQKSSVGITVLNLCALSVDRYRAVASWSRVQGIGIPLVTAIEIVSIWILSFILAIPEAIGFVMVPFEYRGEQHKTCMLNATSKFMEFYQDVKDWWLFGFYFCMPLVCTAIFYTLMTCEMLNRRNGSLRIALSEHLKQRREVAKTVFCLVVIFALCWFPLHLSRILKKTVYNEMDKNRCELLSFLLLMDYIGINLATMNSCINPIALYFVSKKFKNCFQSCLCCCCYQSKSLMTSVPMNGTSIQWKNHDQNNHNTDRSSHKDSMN
# CCR8, sequence (P51685 whole entry): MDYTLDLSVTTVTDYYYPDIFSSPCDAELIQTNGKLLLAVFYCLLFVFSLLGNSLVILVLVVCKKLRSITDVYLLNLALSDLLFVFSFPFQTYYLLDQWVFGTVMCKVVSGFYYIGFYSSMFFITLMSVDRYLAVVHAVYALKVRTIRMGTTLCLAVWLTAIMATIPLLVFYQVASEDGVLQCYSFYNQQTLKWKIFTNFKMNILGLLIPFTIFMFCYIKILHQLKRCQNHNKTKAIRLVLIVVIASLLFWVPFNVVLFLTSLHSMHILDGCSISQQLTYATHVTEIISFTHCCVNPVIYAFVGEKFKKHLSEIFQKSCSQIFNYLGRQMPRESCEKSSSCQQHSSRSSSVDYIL
# CXCR3, sequence (P49682 whole entry): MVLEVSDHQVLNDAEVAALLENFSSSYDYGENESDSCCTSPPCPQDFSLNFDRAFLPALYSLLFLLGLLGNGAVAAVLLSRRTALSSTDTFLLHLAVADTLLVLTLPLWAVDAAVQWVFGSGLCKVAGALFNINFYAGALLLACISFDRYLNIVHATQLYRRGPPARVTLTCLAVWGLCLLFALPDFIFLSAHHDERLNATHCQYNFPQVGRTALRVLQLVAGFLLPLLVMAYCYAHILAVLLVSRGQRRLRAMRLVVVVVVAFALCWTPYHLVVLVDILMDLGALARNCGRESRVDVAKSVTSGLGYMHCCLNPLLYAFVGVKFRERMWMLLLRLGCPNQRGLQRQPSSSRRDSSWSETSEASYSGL
smiles,measurement,setting,value
"[O-][S@@+](Cc1cncs1)C(c1ccccc1)c1ccccc1 [S-CE-123, (S)-5-((Benzhydrylsulfinyl)Methyl)Thiazole]",inhibition at 2.8 µM,CCR2,2%
same,inhibition at 2.8 µM,CCR1,-1.5%
same,inhibition at 2.8 µM,BLT1 (LTB4),-4.7%
same,inhibition at 2.8 µM,FFA2,2.9%
same,inhibition at 2.8 µM,CCR8,-19.9%
same,inhibition at 2.8 µM,A1,10.6%
same,inhibition at 2.8 µM,CXCR3,-7.8%
same,inhibition at 2.8 µM,alpha 1D,-2.4%
same,inhibition at 2.8 µM,KiSS1 / GPR54,-2.8%
same,inhibition at 2.8 µM,CaS,-6.4%
same,inhibition at 2.8 µM,ChemR23,-1.6%
same,inhibition at 2.8 µM,BB1,-10.5%
same,inhibition at 2.8 µM,CCK2 (CCKB),-6.9%
same,inhibition at 2.8 µM,B2,-32.1%
same,inhibition at 2.8 µM,CB2,8.6%
same,inhibition at 2.8 µM,ETA,-0.5%
same,inhibition at 2.8 µM,GPR103/QRFP,-8.8%
same,inhibition at 2.8 µM,β3,15.5%
same,inhibition at 2.8 µM,TGR5,-0.3%
same,inhibition at 2.8 µM,FFA3,-1.4%
same,inhibition at 2.8 µM,α2B,-8.3%
same,inhibition at 2.8 µM,CCR7,2.8%
same,inhibition at 2.8 µM,XCR1 / GPR5,-9.2%
same,remaining binding at 2.8 µM,PFCDPK1(P.falciparum),70%
same,inhibition at 2.8 µM,PAF (h),-39.1%
